These results are taken from patent US20210070748A1, “INHIBITORS OF BRUTONS TYROSINE KINASE” (Pharmacyclics LLC, priority 2015, published 2021).

pIC50: −log10 of the molar value. Read-outs that look alike come from different tables or passages of the source.

Holding throughout (assay type): biochemical
One test concerns the target T1, BTK-WT (Homo sapiens, UniProt Q06187).
T1 construct: purified from insect cells as a full-length construct containing an N-terminal 6X-His tag; His6 (N); made in house; host or cells: insect cells (baculovirus Sf21 in Method B)
In words: Btk in vitro inhibitory activity (one of Method A TR-FRET, Method B electrophoretic mobility shift, Method C radiometric filter binding). Conditions: read-out: IC50 BTK-WT. Background: A gel shift assay detects complexes by their altered migration in electrophoresis.

The next test addresses LCK (Homo sapiens, UniProt P06239). Kind of test: Inhibition of a panel of kinases, in vitro HotSpot kinase assay: LCK. Conditions: read-out: IC50 LCK.
The next test concerns the target EGFR (Homo sapiens, UniProt P00533). In words: Inhibition of a panel of kinases, in vitro HotSpot kinase assay: EGFR. The protocol:
(§1) The degree of inhibition of a panel of kinases is determined using the in vitro HotSpot kinase assay (purified enzymes, ^33P-ATP, an appropriate substrate and 1 μM ATP).

The next test has as its target SRC (Homo sapiens, UniProt P12931). In words: Inhibition of a panel of kinases, in vitro HotSpot kinase assay: SRC. The protocol: as §1
In the next test the target is T2, TEC (Homo sapiens, UniProt P42680).
T2 sequence (P42680 1-631): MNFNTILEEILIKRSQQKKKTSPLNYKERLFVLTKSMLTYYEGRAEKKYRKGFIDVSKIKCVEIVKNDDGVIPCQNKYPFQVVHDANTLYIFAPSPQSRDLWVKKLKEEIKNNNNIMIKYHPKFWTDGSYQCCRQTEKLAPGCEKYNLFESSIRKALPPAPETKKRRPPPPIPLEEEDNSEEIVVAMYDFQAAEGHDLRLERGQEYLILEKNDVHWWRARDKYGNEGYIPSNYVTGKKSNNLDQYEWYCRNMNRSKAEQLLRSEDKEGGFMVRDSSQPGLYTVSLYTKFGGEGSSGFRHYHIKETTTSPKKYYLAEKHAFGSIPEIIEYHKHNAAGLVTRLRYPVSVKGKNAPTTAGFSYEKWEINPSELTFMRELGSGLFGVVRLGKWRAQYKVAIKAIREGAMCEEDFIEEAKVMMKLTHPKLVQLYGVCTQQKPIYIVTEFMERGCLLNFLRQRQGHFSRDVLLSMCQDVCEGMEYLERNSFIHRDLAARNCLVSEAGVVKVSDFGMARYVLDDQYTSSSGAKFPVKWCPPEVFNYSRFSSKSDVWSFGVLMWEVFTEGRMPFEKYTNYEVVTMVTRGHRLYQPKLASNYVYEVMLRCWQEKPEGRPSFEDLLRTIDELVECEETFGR
Kind of test: Inhibition of a panel of kinases, in vitro HotSpot kinase assay: TEC. The protocol:
as §1

[1] abbreviates: D-compounds panel data, 1 μM ATP.

Sequence of LCK (P06239 whole entry): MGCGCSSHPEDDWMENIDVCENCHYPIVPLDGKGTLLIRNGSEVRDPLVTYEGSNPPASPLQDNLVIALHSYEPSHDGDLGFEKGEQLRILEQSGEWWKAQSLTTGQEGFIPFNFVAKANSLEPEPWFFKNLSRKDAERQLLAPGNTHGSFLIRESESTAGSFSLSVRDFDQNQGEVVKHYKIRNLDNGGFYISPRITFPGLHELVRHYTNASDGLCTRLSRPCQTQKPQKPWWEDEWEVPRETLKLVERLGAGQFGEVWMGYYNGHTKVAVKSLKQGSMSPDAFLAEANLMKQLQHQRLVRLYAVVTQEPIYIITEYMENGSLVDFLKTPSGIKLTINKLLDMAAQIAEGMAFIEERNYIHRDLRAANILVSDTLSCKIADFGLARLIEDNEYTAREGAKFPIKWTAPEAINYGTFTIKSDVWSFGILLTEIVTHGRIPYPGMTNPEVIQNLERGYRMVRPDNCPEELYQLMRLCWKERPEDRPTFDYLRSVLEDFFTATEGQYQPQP
T1 sequence (Q06187 whole entry): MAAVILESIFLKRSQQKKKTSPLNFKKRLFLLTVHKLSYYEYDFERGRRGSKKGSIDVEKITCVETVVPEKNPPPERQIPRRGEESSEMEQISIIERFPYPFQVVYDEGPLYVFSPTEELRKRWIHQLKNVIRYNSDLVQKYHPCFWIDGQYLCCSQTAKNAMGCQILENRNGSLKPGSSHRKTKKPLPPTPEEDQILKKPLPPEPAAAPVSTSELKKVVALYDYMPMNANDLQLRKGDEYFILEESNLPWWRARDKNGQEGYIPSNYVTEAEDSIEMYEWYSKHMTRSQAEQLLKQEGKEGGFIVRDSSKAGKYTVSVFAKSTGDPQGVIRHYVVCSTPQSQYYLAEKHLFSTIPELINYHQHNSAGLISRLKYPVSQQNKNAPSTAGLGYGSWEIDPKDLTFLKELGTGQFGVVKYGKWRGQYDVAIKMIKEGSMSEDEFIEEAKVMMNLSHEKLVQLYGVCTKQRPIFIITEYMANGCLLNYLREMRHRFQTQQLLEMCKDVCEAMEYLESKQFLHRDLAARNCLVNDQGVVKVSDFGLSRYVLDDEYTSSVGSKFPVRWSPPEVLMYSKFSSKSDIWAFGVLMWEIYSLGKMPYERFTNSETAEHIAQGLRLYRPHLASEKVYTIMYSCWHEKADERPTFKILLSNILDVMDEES
Sequence of EGFR (P00533 25-1210): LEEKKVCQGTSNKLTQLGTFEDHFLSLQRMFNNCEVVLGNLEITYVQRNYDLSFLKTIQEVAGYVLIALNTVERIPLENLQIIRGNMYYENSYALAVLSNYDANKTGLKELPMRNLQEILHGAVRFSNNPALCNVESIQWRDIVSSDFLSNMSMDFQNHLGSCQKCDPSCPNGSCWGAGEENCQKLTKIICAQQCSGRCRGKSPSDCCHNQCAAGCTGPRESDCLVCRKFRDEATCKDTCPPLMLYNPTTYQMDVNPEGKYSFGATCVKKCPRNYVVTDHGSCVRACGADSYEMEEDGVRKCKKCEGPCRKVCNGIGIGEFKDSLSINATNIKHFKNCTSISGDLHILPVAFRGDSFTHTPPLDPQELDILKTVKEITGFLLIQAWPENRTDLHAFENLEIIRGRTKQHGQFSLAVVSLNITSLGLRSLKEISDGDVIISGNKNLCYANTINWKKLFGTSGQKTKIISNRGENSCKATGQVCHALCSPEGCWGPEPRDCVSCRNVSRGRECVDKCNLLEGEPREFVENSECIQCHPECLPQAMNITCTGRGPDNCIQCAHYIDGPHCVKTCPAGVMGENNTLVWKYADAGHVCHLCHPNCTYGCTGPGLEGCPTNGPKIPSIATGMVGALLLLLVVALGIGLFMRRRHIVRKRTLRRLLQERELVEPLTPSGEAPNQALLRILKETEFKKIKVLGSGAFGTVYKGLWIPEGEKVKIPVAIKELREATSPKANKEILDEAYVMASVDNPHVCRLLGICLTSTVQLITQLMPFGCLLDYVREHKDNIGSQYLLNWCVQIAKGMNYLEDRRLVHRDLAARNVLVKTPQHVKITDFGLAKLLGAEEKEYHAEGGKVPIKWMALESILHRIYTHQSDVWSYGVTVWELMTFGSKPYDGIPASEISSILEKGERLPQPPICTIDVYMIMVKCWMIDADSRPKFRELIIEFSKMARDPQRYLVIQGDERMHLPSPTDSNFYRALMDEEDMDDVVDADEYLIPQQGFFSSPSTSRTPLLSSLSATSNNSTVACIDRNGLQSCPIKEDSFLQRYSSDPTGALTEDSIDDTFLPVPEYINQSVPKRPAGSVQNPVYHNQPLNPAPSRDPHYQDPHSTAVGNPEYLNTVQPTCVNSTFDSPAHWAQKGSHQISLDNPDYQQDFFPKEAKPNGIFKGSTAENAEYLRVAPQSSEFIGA
Sequence of SRC (P12931 whole entry): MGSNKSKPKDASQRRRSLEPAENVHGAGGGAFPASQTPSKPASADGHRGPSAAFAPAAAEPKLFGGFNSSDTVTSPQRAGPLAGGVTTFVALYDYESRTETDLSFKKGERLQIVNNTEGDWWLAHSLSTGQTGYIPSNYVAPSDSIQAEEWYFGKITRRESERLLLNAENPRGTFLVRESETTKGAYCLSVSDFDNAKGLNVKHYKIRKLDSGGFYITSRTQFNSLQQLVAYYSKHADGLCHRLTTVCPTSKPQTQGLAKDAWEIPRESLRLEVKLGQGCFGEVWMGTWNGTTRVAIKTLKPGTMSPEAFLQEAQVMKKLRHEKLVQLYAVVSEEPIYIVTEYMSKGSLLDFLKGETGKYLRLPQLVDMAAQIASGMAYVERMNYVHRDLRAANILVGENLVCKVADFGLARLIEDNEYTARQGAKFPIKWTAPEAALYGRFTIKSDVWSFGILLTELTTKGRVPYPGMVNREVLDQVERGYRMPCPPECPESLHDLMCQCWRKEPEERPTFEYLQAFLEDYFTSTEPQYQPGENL

As a reminder, the pIC50 is the negative decadic logarithm of the IC50, by convention in mol/L. On to `C[C@@H]1[C@H](N2Cc3cc(Br)ccc3C2=O)CCCN1c1cnc(C(N)=O)c(Nc2cnn(C)c2)n1` [Example D-27, 5-[(2R,3R)-3-(5-bromo-1-oxo-2,3-dihydro-1H-isoindol-2-yl)-2-methylpiperidin-1-yl]-3-[(1-methyl-1H-pyrazol-4-yl)amino]pyrazine-2-carboxamide], for which the pIC50 was not below 8.00 at BTK-WT (D-compounds panel data); 6.00 to 7.00 on LCK (setting [1]); 6.00 to 7.00 at EGFR (setting [1]); 7.00 to 8.00 against SRC (setting [1]); not below 8.00 against TEC (setting [1]).
On to `C[C@@H]1[C@H](NC(=O)c2cnn(C(C)(C)C)c2)CCCN1c1cnc(C(N)=O)c(Nc2cnn(C)c2)n1` [Example D-57, 5-[(2R,3R)-3-(1-tert-butyl-1H-pyrazole-4-amido)-2-methylpiperidin-1-yl]-3-[(1-methyl-1H-pyrazol-4-yl)amino]pyrazine-2-carboxamide], for which the negative logarithm of the IC50 (pIC50) at BTK-WT (D-compounds panel data) was not below 8.00; at LCK (setting [1]) it was 6.00 to 7.00; against EGFR (setting [1]), 5.00 to 6.00; against SRC (setting [1]) it was 7.00 to 8.00; at TEC (setting [1]) it was 7.00 to 8.00.
Regarding `Cn1cc(Nc2nc(N3CCC(NC(=O)c4ccc(C5CC5)cc4)C(O)C3)cnc2C(N)=O)cn1` (single isomer, unassigned) [Example D-28, Trans-5-[4-(4-cyclopropylbenzamido)-3-hydroxypiperidin-1-yl]-3-[(1-methyl-1H-pyrazol-4-yl)amino]pyrazine-2-carboxamide], the pIC50 is 5.00 to 6.00 at BTK-WT (D-compounds panel data); less than 5.00 at LCK (setting [1]); less than 5.00 on EGFR (setting [1]); 5.00 to 6.00 against SRC (setting [1]); less than 5.00 against TEC (setting [1]).
As to `C[C@@H]1[C@H](NC(=O)c2ccc(C3CC3)cc2F)CCCN1c1cnc(C(N)=O)c(Nc2nc3c(s2)CN(C)CC3)n1` [Example D-62, 5-[(2R,3R)-3-(4-cyclopropyl-2-fluorobenzamido)-2-methylpiperidin-1-yl]-3-({5-methyl-4H,5H,6H,7H-[1,3]thiazolo[5,4-c]pyridin-2-yl}amino)pyrazine-2-carboxamide], the pIC50 on BTK-WT (D-compounds panel data) was 6.00 to 7.00; at LCK (setting [1]), less than 5.00; at EGFR (setting [1]), less than 5.00; at SRC (setting [1]), less than 5.00; on TEC (setting [1]), 6.00 to 7.00.
Take `C[C@@H]1[C@H](NC(=O)c2ccc(C3CC3)cc2)CCCN1c1cnc(C(N)=O)c(Nc2cnn(CC3CCOCC3)c2)n1` [Example D-319, 5-[(2R,3R)-3-(4-cyclopropylbenzamido)-2-methylpiperidin-1-yl]-3-{[1-(oxan-4-ylmethyl)-1H-pyrazol-4-yl]amino}pyrazine-2-carboxamide]: the negative logarithm of the IC50 (pIC50) at BTK-WT (D-compounds panel data) was not below 8.00; at LCK (setting [1]), 6.00 to 7.00; at EGFR (setting [1]) it was 5.00 to 6.00; on SRC (setting [1]) it was 7.00 to 8.00; against TEC (setting [1]), not below 8.00.
Turning to `C[C@@H]1[C@H](NC(=O)c2ccc(C3CC3)nc2)CCCN1c1cnc(C(N)=O)c(Nc2ccc(OC3CCC(F)(F)CC3)cc2)n1` [Example D-48, 5-[(2R,3R)-3-(6-cyclopropylpyridine-3-amido)-2-methylpiperidin-1-yl]-3-({4-[(4,4-difluorocyclohexyl)oxy]phenyl}amino)pyrazine-2-carboxamide], the pIC50 on BTK-WT (D-compounds panel data) was 7.00 to 8.00; on LCK (setting [1]) it was less than 5.00; at EGFR (setting [1]), less than 5.00; against SRC (setting [1]), 6.00 to 7.00; against TEC (setting [1]), 7.00 to 8.00.
Regarding `C[C@@H]1[C@H](NC(=O)c2ccc(C3CC3)cc2)CCCN1c1cnc(C(N)=O)c(Nc2ccc(OC(F)(F)F)cc2)n1` [Example D-42, 5-[(2R,3R)-3-(4-cyclopropylbenzamido)-2-methylpiperidin-1-yl]-3-{[4-(trifluoromethoxy)phenyl]amino}pyrazine-2-carboxamide], the pIC50 on BTK-WT (D-compounds panel data) is 6.00 to 7.00; on LCK (setting [1]), less than 5.00; at EGFR (setting [1]), less than 5.00; at SRC (setting [1]) it was less than 5.00; against TEC (setting [1]), 6.00 to 7.00.
For `Cc1cc(Nc2nc(N3C[C@@H](NC(=O)c4ccc(C5CC5)cc4F)CC[C@H]3C)cnc2C(N)=O)sn1` [Example D-80, 5-[(2R,5S)-5-(4-cyclopropyl-2-fluorobenzamido)-2-methylpiperidin-1-yl]-3-[(3-methyl-1,2-thiazol-5-yl)amino]pyrazine-2-carboxamide], the pIC50 at BTK-WT (D-compounds panel data) is 7.00 to 8.00; at LCK (setting [1]), 6.00 to 7.00; against EGFR (setting [1]), 6.00 to 7.00; on SRC (setting [1]), 6.00 to 7.00; at TEC (setting [1]), 5.00 to 6.00.
For `C=CC(=O)N1CCC[C@@H](Nc2cnc(C(N)=O)c(Nc3ccc(C4CCN(C5CCCC5)CC4)cc3)n2)C1` [Example E-108, (R)-5-(1-acryloylpiperidin-3-ylamino)-3-(4-(1-cyclopentylpiperidin-4-yl)phenylamino)pyrazine-2-carboxamide], the pIC50 at BTK-WT (E compounds, Table 17) was not below 8.00; on LCK (E compounds, Table 17), 7.00 to 8.00; against EGFR (E compounds, Table 17), not below 8.00; at SRC (E compounds, Table 17) it was 7.00 to 8.00; on TEC (E compounds, Table 17), not below 8.00.
Regarding `C[C@@H]1[C@H](NC(=O)c2ccc(C3CC3)cc2)CCCN1c1cnc(C(N)=O)c(Nc2ccc(N3CCC(C(=O)N(C)C)CC3)cc2)n1` [Example D-320, 5-[(2R,3R)-3-(4-cyclopropylbenzamido)-2-methylpiperidin-1-yl]-3-({4-[4-(dimethylcarbamoyl)piperidin-1-yl]phenyl}amino)pyrazine-2-carboxamide], the pIC50 on BTK-WT (D-compounds panel data) was not below 8.00; on LCK (setting [1]), 7.00 to 8.00; against EGFR (setting [1]), 6.00 to 7.00; at SRC (setting [1]), 7.00 to 8.00; against TEC (setting [1]), not below 8.00.
As for `C[C@@H]1[C@H](NC(=O)c2ccc3c(c2)C(C)(C)CO3)CCCN1c1cnc(C(N)=O)c(Nc2cnn(C)c2)n1` [Example D-55, 5-[(2R,3R)-3-(3,3-dimethyl-2,3-dihydro-1-benzofuran-5-amido)-2-methylpiperidin-1-yl]-3-[(1-methyl-1H-pyrazol-4-yl)amino]pyrazine-2-carboxamide], the pIC50 was not below 8.00 at BTK-WT (D-compounds panel data); 7.00 to 8.00 on LCK (setting [1]); 5.00 to 6.00 at EGFR (setting [1]); 7.00 to 8.00 at SRC (setting [1]); not below 8.00 on TEC (setting [1]).
As for `C[C@H]1C[C@@H](NC(=O)c2ccc(C3CC3)cc2)CN(c2cnc(C(N)=O)c(Nc3cnn(C)c3)n2)C1` [Example D-30, 5-[(3R,5S)-3-(4-cyclopropylbenzamido)-5-methylpiperidin-1-yl]-3-[(1-methyl-1H-pyrazol-4-yl)amino]pyrazine-2-carboxamide], the pIC50 at BTK-WT (D-compounds panel data) is not below 8.00; at LCK (setting [1]) it was 6.00 to 7.00; at EGFR (setting [1]), less than 5.00; on SRC (setting [1]), 6.00 to 7.00; against TEC (setting [1]) it was 7.00 to 8.00.
On to `C[C@@H]1[C@H](NC(=O)c2ccc(C(F)(F)F)cn2)CCCN1c1cnc(C(N)=O)c(Nc2cnn(C)c2)n1` [Example D-87, 3-[(1-methyl-1H-pyrazol-4-yl)amino]-5-[(2R,3R)-2-methyl-3-[5-(trifluoromethyl)pyridine-2-amido]piperidin-1-yl]pyrazine-2-carboxamide], for which the pIC50 was not below 8.00 at BTK-WT (D-compounds panel data); 6.00 to 7.00 on LCK (setting [1]); 6.00 to 7.00 on EGFR (setting [1]); 7.00 to 8.00 against SRC (setting [1]); 7.00 to 8.00 against TEC (setting [1]).
Consider `C[C@@H]1[C@H](NC(=O)c2ccc(C3CC3)cc2)CCCN1c1cnc(C(N)=O)c(Nc2ccc(N3CCN(C)CC3)cc2)n1` [Example D-81], for which the pIC50 was not below 8.00 at BTK-WT (D-compounds panel data); 7.00 to 8.00 on LCK (setting [1]); 6.00 to 7.00 against EGFR (setting [1]); 7.00 to 8.00 on SRC (setting [1]); 7.00 to 8.00 at TEC (setting [1]).
As to `CC1COc2cc(C(=O)N[C@@H]3CCCN(c4cnc(C(N)=O)c(Nc5cnn(C)c5)n4)[C@@H]3C)ccc2C1` (stereo partly drawn) [Example D-56, 3-[(1-methyl-1H-pyrazol-4-yl)amino]-5-[(2R,3R)-2-methyl-3-(3-methyl-3,4-dihydro-2H-1-benzopyran-7-amido)piperidin-1-yl]pyrazine-2-carboxamide], the pIC50 at BTK-WT (D-compounds panel data) is not below 8.00; at LCK (setting [1]), 7.00 to 8.00; at EGFR (setting [1]), 6.00 to 7.00; against SRC (setting [1]) it was 7.00 to 8.00; on TEC (setting [1]), not below 8.00.
For `Cc1csc(Nc2nc(N3CCC[C@@H](NC(=O)c4ccc(C5CC5)cc4F)[C@H]3C)cnc2C(N)=O)n1` [Example D-63, 5-[(2R,3R)-3-(4-cyclopropyl-2-fluorobenzamido)-2-methylpiperidin-1-yl]-3-[(4-methyl-1,3-thiazol-2-yl)amino]pyrazine-2-carboxamide], the pIC50 was 5.00 to 6.00 at BTK-WT (D-compounds panel data); less than 5.00 on LCK (setting [1]); less than 5.00 against EGFR (setting [1]); less than 5.00 on SRC (setting [1]); less than 5.00 against TEC (setting [1]).
